For one assay, the target named is T1, Human recombinant PDE4B2 (Homo sapiens, UniProt Q07343).
T1 construct: purchased BPS Bioscience
Nature of the assay: Inhibition of PDE4B4 enzyme activity (PDE Glo Assay). The note with it: human recombinant PDE4B2, 50 nM cAMP; read-out: PDE4 IC50. The format is biochemical. The protocol:
Biological Examples Inhibition of PDE4B4 Enzyme Activity
The inhibitory activity of test compounds were determined using the PDE Glo Assay (Promega, V1361). The PDE-Glo Reaction Buffer was prepared (1 mL 5× buffer+4 mL water) and 150 nM solution of test compound dissolved in the Reaction Buffer, followed by 1:3 serial dilutions into Reaction Buffer. […] Human recombinant PDE4B2 (BPS Bioscience) was added to test compound in Reaction Buffer at a concentration of 0.12 nM per reaction. The enzyme and test compound were pre-incubated together at rt for 10 min. 50 nM of the enzyme substrate cAMP was then added to initiate the enzyme reaction, with the reaction terminated after one hour. Termination Buffer (1 mL 5× termination buffer+3.9 mL water+100 μL of 100 mM IBMX (ICN Chemicals, in DMSO)), was added to each reaction well to terminate the reaction. Detection Buffer (1 mL 5×PDE-Glo Detection buffer+3.96 mL water+40 μL PKA (supplied in kit)) was added to the cAMP-enzyme-test compound mix and this secondary reaction proceeded for 20 minutes at rt. An equal volume of Kinase Glo Reagent was then added to the reaction mixture and after 10 min luminescence was measured using a luminometer (EnVision, 0.1 sec read for luminescence). Luminescence values were […] related to levels of cAMP in the reaction mixture. Data were plotted as relative light units (RLU) versus test compound concentration and the IC50 determined using GraphPad Prism 5.0, using a nonlinear curve fit in a single-site binding model.
IC50 determinations for the compounds presented above are seen in the first column of Table 1 (PDE4IC50).

The target of assay [1] is T2, human recombinant beta-2 adrenoreceptors (Homo sapiens, UniProt P07550).
T2 construct: expressed in transfected cells; host or cells: CHO cells
T2 sequence (P07550 whole entry): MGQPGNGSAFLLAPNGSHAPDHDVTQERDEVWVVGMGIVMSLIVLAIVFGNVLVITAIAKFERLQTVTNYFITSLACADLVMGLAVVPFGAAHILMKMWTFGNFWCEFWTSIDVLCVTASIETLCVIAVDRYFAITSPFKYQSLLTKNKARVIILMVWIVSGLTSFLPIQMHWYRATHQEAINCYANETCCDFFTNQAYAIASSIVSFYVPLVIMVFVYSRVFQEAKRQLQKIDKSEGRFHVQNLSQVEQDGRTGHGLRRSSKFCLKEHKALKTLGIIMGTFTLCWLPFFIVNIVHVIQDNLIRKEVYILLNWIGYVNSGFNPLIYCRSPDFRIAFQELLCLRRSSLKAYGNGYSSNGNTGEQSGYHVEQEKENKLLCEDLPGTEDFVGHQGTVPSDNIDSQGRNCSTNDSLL
Nature of the assay: Beta-2 adrenoceptor binding assay ([3H](−)CGP-12177 displacement). The note with it: CHO cells expressing human beta-2 adrenoreceptors, [3H](−)CGP-12177 0.3 nM, 120 min. How it is done: Beta-2 Adrenoceptor Binding Assay
Test compounds were incubated for 120 min with Chinese hamster oocyte (CHO) cells expressing the human recombinant beta-2 adrenoreceptors. Binding of test compounds to the beta-2 adrenoreceptors was determined by measuring the displacement of the radiolabeled ligand [^3H](−)CGP-12177 (0.3 nM) from the receptor measured by a scintillation counting. Concentration response curves were generated for test compounds and the IC50 (molar concentration of the compound which produced 50% inhibition for the maximal response for that compound) was determined. These assays were performed using a protocol based on the original description of the assay by Joseph et al., (2004) Naun.-Sch. Arch. Pharm.; 369:525-532.
IC50 determinations for the compounds presented above are seen in the second column of Table 1 (Beta 2 IC50).

For assay [2], the target named is T2, human recombinant beta-2 adrenoreceptors. Nature of the assay: Functional agonism of human recombinant beta-2 adrenoreceptors expressed in CHO cells (cAMP HTRF). In kind it is cell-based. The following applies: CHO cells expressing human beta-2 adrenoreceptors, cAMP elevation, 30 min. How it is done: Functional Agonism of Human Recombinant Beta-2 Adrenoreceptors Expressed in Chinese Hamster Oocytes (CHO)
Test compounds were incubated for 30 min with CHO cells expressing the human recombinant beta-2 adrenoreceptors. Agonism of the receptor was measured by the elevation of intracellular cyclic-AMP over control levels detected using a homogeneous time resolved fluorescence (HTRF) format. Compounds were determined to be “full” or “partial” agonists based on the maximum level of cAMP accumulated compared to the control compound isoproterenol which is a full agonist in this assay system. Concentration response curves were generated for test compounds and the EC50 (molar concentration of the agonist which produced 50% of the maximal response for that compound) was determined. These assays were performed using a protocol based on the original description of the assay by Baker, J. G. (2005) Brit. J. Pharmacol.; 144:317-322.
EC50 determinations for the compounds presented above are seen in the third column of Table 1 (Beta 2 EC50).

For assay [3], the system named is LPS-induced TNF-α release from human peripheral blood mononuclear cells (PBMC). Nature of the assay: Inhibition of LPS-induced TNF-α release from human PBMC. The note with it: LPS 0.4 ng/mL, 6 h, presence or absence of ICI-118551 not given. The format is cell-based. The source says: Inhibition of Lipopolysaccharide (LPS)-Induced Tumour Necrosis Factor Alpha (TNF-α) Release from Human Peripheral Blood Mononuclear Cells (PBMC)
Human whole blood was drawn from donors and cell purification initiated within two hours. Peripheral blood mononuclear cells (PBMC) were purified using a standard Ficoll gradient purification technique and aliquoted at a concentration of 100,000 cells/well in 96 well plates. Beta-2 adrenoreceptor agonists are also anti-inflammatory for some immune cells expressing the receptor and in this assay they can inhibit tumor necrosis factor-alpha (TNF-α) production. Therefore PBMC were pre-incubated for 30 min in the presence of the beta-2 adrenoreceptor antagonist ICI-118551 [3-(isopropylamino)-1-[(7-methyl-4-indanyl)oxy]butan-2-ol] (10 μM) to determine the PDE4 directed activity of test compounds, and in the absence of ICI-118551 for the combined PDE4 and beta-2 receptor directed activity. Test compounds were dissolved in DMSO and diluted in buffer (final DMSO concentration of 0.1% v/v) and were then added to the cell suspensions and pre-incubated for a further 1 h at 37° C. LPS solution was then added (0.4 ng/mL) and the cells incubated for a further 6 h. At the end of the incubation period the cell supernatants were collected and TNF-α was measured using a Procarta Cytokine Assay Kit (Affymetrix, Santa Clara, Calif.) according to the manufacturers' instructions. Data were analyzed using MiraiBio Masterplex QT v4.0 software (MasterPlex Version 1.0.1.18 Copyright 2008, Hitachi Software Engineering Co., Ltd) and used to extrapolate Mean Fluorescence Intensity (MFI) into concentrations of TNF-α and mean values from replicate wells were determined. Inhibition curves were plotted using a nonlinear curve fit employing a single-site binding model to determine the IC50 value for each test compound in the presence or absence of ICI-118551 using GraphPad Prism 5 for Windows, version 5.02 (GraphPad Software, San Diego Calif.).
EC50 determinations for the compounds presented above are seen in the fourth column of Table 1 (PBMC TNF EC50).

T1 sequence (Q07343 1-564 isoform Q07343-2): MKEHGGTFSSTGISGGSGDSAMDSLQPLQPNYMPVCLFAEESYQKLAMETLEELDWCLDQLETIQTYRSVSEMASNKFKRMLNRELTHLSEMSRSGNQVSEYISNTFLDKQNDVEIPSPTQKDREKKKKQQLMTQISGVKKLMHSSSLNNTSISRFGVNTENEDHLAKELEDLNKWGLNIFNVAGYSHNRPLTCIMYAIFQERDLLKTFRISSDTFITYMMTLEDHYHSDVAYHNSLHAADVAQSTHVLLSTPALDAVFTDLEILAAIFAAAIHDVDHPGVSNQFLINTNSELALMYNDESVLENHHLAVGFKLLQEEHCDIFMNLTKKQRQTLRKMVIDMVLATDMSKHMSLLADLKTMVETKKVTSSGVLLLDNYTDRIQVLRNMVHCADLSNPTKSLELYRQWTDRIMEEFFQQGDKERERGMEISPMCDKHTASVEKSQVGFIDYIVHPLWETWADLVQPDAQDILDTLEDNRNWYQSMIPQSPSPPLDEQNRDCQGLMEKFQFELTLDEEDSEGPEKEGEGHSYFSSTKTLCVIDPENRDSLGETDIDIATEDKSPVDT

Take `COc1cccc(Nc2c(C(N)=O)cnc3c(C)cc(S(=O)(=O)c4cccc(C(=O)N5CCN(CCNC[C@H](O)c6ccc(O)c7[nH]c(=O)ccc67)CC5)c4)cc23)c1` [Example 11, 6-[3-[[4-[2-[[2-Hydroxy-2-(8-hydroxy-2-oxo-1,2-dihydroquinolin-5-yl)ethyl]amino]ethyl]piperazine-1-yl]carbonyl]benzenesulfonyl]-4-(3-methoxyphenylamino)-8-methylquinoline-3-carboxyamide]: the IC50 (at Human recombinant PDE4B2; in assay [1]) was < 100 nM throughout. The EC50 in assay [2] and in assay [3] was < 100 nM throughout.
Take `COc1cccc(Nc2c(C(N)=O)cnc3c(C)cc(S(=O)(=O)c4cccc(C(=O)N(C)CCCCCCNC[C@H](O)c5ccc(O)c6[nH]c(=O)ccc56)c4)cc23)c1` [Example 14]: the IC50 (in general, the midpoint of a concentration-inhibition curve) on Human recombinant PDE4B2 is < 100 nM; in assay [1] it was > 300 nM. Besides, the EC50 (commonly the concentration at which the effect is half-maximal) in assay [2] was > 300 nM; in assay [3] it was < 100 nM.
For `COc1cccc(Nc2c(C(N)=O)cnc3c(C)cc(S(=O)(=O)c4cccc(C(=O)N5CCN(CCCCCCNC[C@H](O)c6ccc(O)c7[nH]c(=O)ccc67)CC5)c4)cc23)c1` [Example 16, (R)-6-((3-(4-(6-((2-hydroxy-2-(8-hydroxy-2-oxo-1,2-dihydroquinolin-5-yl)ethyl)amino)hexyl)piperazine-1-carbonyl)phenyl)sulfonyl)-4-((3-methoxyphenyl)amino)-8-methylquinoline-3-carboxamide], the IC50 at Human recombinant PDE4B2 was < 100 nM; in assay [1] it was > 300 nM. Moreover, the results for the EC50 in assay [2] and in assay [3] were < 300 nM and < 100 nM, respectively.
Turning to `COc1cccc(Nc2c(C(N)=O)cnc3c(C)cc(S(=O)(=O)c4cccc(C(=O)Nc5ccc(CCCCOCCCCCCNC[C@H](O)c6ccc(O)c7[nH]c(=O)ccc67)cc5)c4)cc23)c1` [Example 38, (R)-6-((3-((4-(4-((6-((2-hydroxy-2-(8-hydroxy-2-oxo-1,2-dihydroquinolin-5-yl)ethyl)amino)hexyl)oxy)butyl)phenyl)carbamoyl)phenyl)sulfonyl)-4-((3-methoxyphenyl)amino)-8-methylquinoline-3-carboxamide], the IC50 (on Human recombinant PDE4B2; in assay [1]) was < 100 nM throughout. The EC50 in assay [2] and in assay [3] was < 100 nM in each case.
For `COc1cccc(Nc2c(C(N)=O)cnc3c(C)cc(S(=O)(=O)c4cccc(C(=O)Nc5cccc(C#CCCCNC[C@H](O)c6ccc(O)c7[nH]c(=O)ccc67)c5)c4)cc23)c1` [Example 9, (R)-6-((3-((3-(5-((2-hydroxy-2-(8-hydroxy-2-oxo-1,2-dihydroquinolin-5-yl)ethyl)amino)pent-1-yn-1-yl)phenyl)carbamoyl)phenyl)sulfonyl)-4-((3-methoxyphenyl)amino)-8-methylquinoline-3-carboxamide], the IC50 (at Human recombinant PDE4B2; in assay [1]) was < 100 nM each time. In addition, the EC50 in assay [2] and in assay [3] was < 100 nM throughout.
For `COc1cccc(Nc2c(C(N)=O)cnc3c(C)cc(S(=O)(=O)c4cccc(C(=O)Nc5ccc(C#CCCCNC[C@H](O)c6ccc(O)c7c6OCC(=O)N7)cc5)c4)cc23)c1` [Example 32, (R)-6-((3-((4-(5-((2-hydroxy-2-(5-hydroxy-3-oxo-3,4-dihydro-2H-benzo[b][1,4]oxazin-8-yl)ethyl)amino)pent-1-yn-1-yl)phenyl)carbamoyl)phenyl)sulfonyl)-4-((3-methoxyphenyl)amino)-8-methylquinoline-3-carboxamide], the IC50 (at Human recombinant PDE4B2; in assay [1]) was < 100 nM each time. The EC50 in assay [2] and in assay [3] was < 100 nM each time.
Take `COc1cccc(Nc2c(C(N)=O)cnc3c(C)cc(S(=O)(=O)c4cccc(C(=O)Nc5ccc(CCCCCNC[C@H](O)c6ccc(O)c7[nH]c(=O)ccc67)cc5)c4)cc23)c1` [Example 10, (R)-6-[[3-[[4-[5-[[2-Hydroxy-2-(8-hydroxy-2-oxo-1,2-dihydroquinolin-5-yl)ethyl]amino]pentyl]phenyl]carbamoyl]phenyl]sulfonyl]-4-[(3-methoxyphenyl)amino]-8-methylquinoline-3-carboxamide 2,2,2-trifluoroacetate]: the IC50 (at Human recombinant PDE4B2; in assay [1]) was < 100 nM throughout. The EC50 in assay [2] and in assay [3] was < 100 nM in each case.
Turning to `COc1cccc(Nc2c(C(N)=O)cnc3c(C)cc(S(=O)(=O)c4cccc(C(=O)N5CCN(C(=O)c6cccc(CC(C)NC[C@H](O)c7ccc(O)c8[nH]c(=O)ccc78)c6)CC5)c4)cc23)c1` (stereo partly drawn) [Example 17, 6-((3-(4-(3-(2-(((R)-2-hydroxy-2-(8-hydroxy-2-oxo-1,2-dihydroquinolin-5-yl)ethyl)amino)propyl)benzoyl)piperazine-1-carbonyl)phenyl)sulfonyl)-4-((3-methoxyphenyl)amino)-8-methylquinoline-3-carboxamide], the IC50 (at Human recombinant PDE4B2; in assay [1]) was < 100 nM each time. In addition, the EC50 in assay [2] and in assay [3] was < 100 nM throughout.
Turning to `COc1cccc(Nc2c(C(N)=O)cnc3c(C)cc(S(=O)(=O)c4cccc(C(=O)Nc5ccc(C#CCCCNC[C@H](O)c6ccc(O)c7[nH]c(=O)ccc67)cc5C)c4)cc23)c1` [Example 34, (R)-6-((3-((4-(5-((2-hydroxy-2-(8-hydroxy-2-oxo-1,2-dihydroquinolin-5-yl)ethyl)amino)pent-1-yn-1-yl)-2-methylphenyl)carbamoyl)phenyl)sulfonyl)-4-((3-methoxyphenyl)amino)-8-methylquinoline-3-carboxamide], the IC50 (on Human recombinant PDE4B2; in assay [1]) was < 100 nM each time. The EC50 in assay [2] and in assay [3] was < 100 nM in each case.
With `COc1cccc(Nc2c(C(N)=O)cnc3c(C)cc(S(=O)(=O)c4cccc(C(=O)N5CCC(NC[C@H](O)c6ccc(O)c7[nH]c(=O)ccc67)CC5)c4)cc23)c1` [Example 3, (R)-6-[[3-[[4-[[2-Hydroxy-2-(8-hydroxy-2-oxo-1,2-dihydroquinolin-5-yl)ethyl]amino]piperidine-1-yl]carbonyl)phenyl]sulfonyl]-4-[(3-methoxyphenyl)amino]-8-methylquinoline-3-carboxamide], the IC50 at Human recombinant PDE4B2 was < 100 nM; in assay [1] it was > 300 nM. Further, the 50% effective concentration (EC50) in assay [2] and in assay [3] was < 100 nM each time.

The record behind these values is patent US8394829B2, “Bi-functional quinoline analogs” (Gilead Sciences, Inc., priority 2010, dated 2013).
